Reference: patent publication US9511072B2, “Methods of modulating cell proliferation and cyst formation in polycystic kidney and liver diseases” (The Medical College of Wisconsin, Inc., priority 2006, dated 2016)
Where “and” joins values, the source holds several entries; their conditions need not be identical. Equal values may be shown once. Entries after “also recorded” stand apart in the source; their conditions may differ.

What was measured:
[1] = system: EGF receptor (EGFR) phosphorylation in REC12 cells; assay: Western blot of phosphorylated EGFR in normal REC12 cells; assay type: cell-based, mouse; conditions: 10 μM, REC12 normal renal epithelial cells
From the text: (§1) REC11 cystic cell line is a conditionally immortalized epithelial collecting tubule (CT) cell line derived from the cystic kidneys of the BPK mouse model of human ARPKD crossed to the ImmortoMouse. The BPK mouse as a human ARPKD model has been described in Nauta J. et al., Pediatr Nephrol 1993, 7:163-172 and Nauta J. et al., Pediatr Res 1995, 37:755-763. The procedures for immortalization, cell isolation, cell culture and the complete phenotypic characterization of this cell line have been described in detail in Sweeney W. E. et al., Am J Physiol C Physiol 2001, 281:C1695-705. All analysis and experiments were performed on REC11 cells grown for a minimum 6 days under non-permissive conditions to eliminate residual Large T. REC12 cell line is a conditionally immortalized epithelial collecting tubule (CT) cell line derived from the wild-type Balb/C littermates. The Balb/C is the strain of mice in which the BPK mutation arose (Nauta J. et al., Pediatr Nephrol 1993, 7:163-172 and Nauta J. et al., Pediatr Res 1995, 37:755-763).
(§2) REC11 cells (FIG. 2, lanes A and B) and control renal epithelial cells (REC12 cells: FIG. 2, lanes C and D) were grown for 10 days. Next, the cells were exposed to vehicle (lanes A and C) or 10 μM HET0016 (lanes B and D) and then harvested for assessment of the expression of phosphorylated EGFR by Western Blot analysis.

[2] = system: Cyp4a12-expressing Balb/C cells; assay: Cell counting of Cyp4a12-transduced non-cystic Balb/C cells; assay type: cell-based, mouse; conditions: 10 μM
Description: (§3) For the cell counting experiments, the non-cystic Balb/C (+/+) and cystic BPK renal epithelial cells were seeded in 6-well dishes and changed into media lacking γ-IFN at 37° C. (non-permissive conditions) for at least 6 additional days prior to assessing any phenotypic analyses to ensure the loss of the T antigen (Sweeney W E et al. Am J Physiol Cell Physiol, 281:C1695-705, 2001). Cells were harvested by tryptic digestion and counted by light microscopy using a hemocytometer.
(§4) The cells in this experiment were transduced using the lentiviral vectors in the presence of γ-IFN (i.e., permissive state) and allowed to expand. Once the cells were expanded, the transduced cells were grown in the absence of γ-IFN (i.e., non-permissive state) for 10 days. The cells were harvested and counted to initiate the proliferation experiment.
There was no significant difference (P>0.05) between Balb/C cells treated with vehicle or the EGFP-transduced lentiviral vectors.

Balb/C mice = assay: Chronic HET-0016 treatment of non-cystic Balb/C mice; assay type: in vivo, mouse; conditions: 10 mg/kg/day i.p.
20-HETE = conditions: cited from earlier work
BPK mice = assay: Chronic HET-0016 treatment of cystic BPK mice (kidney mass, cysts); assay type: in vivo, mouse
Description: This study was conducted using “immortalized” BPK mice as previous described by Sweeney W E et al. (Am J Physiol Cell Physiol, 281:C1695-705, 2001). In brief, BPK female heterozygotes (bpk^+/−) were bred with H-2k^b-ts-A58 transgenic males. Compound heterozygotes (bpk^+/−; H-2K^b-ts-A58^+/−) were identified by PCR and backcrossing to produce cystic offspring. Compound heterozygotes were mated to generate cystic (bpk^−/−; H-2K^b-ts-A58^+/±) and non-cystic (bpk^+/−; H-2K^b-ts-A58^+/±) offspring carrying at least one copy of the Immorto transgene (bpk^−/−; H-2K^b-ts-A58^+/±). All of the mice were genotyped for the H-2K^b-ts-A58 transgene by PCR analysis of DNA extracts from tail sections as described in Takacs-Jarrett M et al. Am J Physiol, 275:F802-11, 1998.
Kidney and liver tissues were harvested for qualitative analysis as described in Sweeney W E et al. (Kidney Int, 57:33-40, 2000) at postnatal day 21. Briefly, kidney and liver were fixed in 4.0% paraformaldehyde in phosphate buffer (pH 7.4) for 30 min at 4° C. Tissues were then washed, dehydrated through a graded series of acetone, and fixed in Immunobed embedding medium (Polysciences, Warrington, Pa.). Sections were cut at 4 μm, mounted on glass slides, and stained with hematoxylin or lectins staining the proximal tubule [Lotus tetragonobulus agglutinin (LTA)] and collecting tubule [Dolichol biflorus agglutinin (DBA)]. Segmental nephron cyst localization was characterized by light microscopy, and cystic lesions were quantitated by a morphometric index as described in Nakanishi K et al. (J Am Soc Nephrol, 12:719-25, 2001), Richards W G et al. (J Clin Invest, 101:935-9, 1998), Sweeney W E et al. (Kidney Int, 57:33-40, 2000), and Sweeney W E et al. (Kidney Int, 64:1310-9, 2003).
We administered HET-0016 (10 mg/kg/day), a specific 20-HETE synthesis inhibitor, intraperitoneally on a daily basis from post-natal day 7 to post-natal day 20. On day 21, the mice were sacrificed and the kidneys analyzed. […] Chronic blockade of 20-HETE synthesis lowered the KW/BW ratio to 9.4 in the HET-0016 treated BPK mice (Table 3).

[3] = system: EGF receptor (EGFR) phosphorylation in REC11 cells; assay: Western blot of phosphorylated EGFR in REC11 cystic cells; assay type: cell-based, mouse; conditions: 10 μM
From the text: as §1, §2

[4] = system: cystic BPK renal epithelial cells; assay: Cell counting of cystic BPK renal epithelial cells; assay type: cell-based, mouse; conditions: 10 μM added daily, day 2, non-permissive conditions
Description: as §3, §4

PCK rats = assay: Chronic HET0016 treatment of PCK rats (KW/BW, LW/BW, morphology); assay type: in vivo, rat
Description: PCK rats, an orthologous model of human ARPKD (PKHD1), received daily IP injections of vehicle or HET0016 at 10 mg/kg/daily, starting at postnatal day 7 (PN-7). Animals were treated daily from PN-7 to PN-55 (48 doses). Kidney and liver were harvested at PN-55.

[5] = Balb/c (+/+), post-natal day 7-20, day 21
[6] = BPK (−/−), 10 mg/kg/day i.p., post-natal day 7-20, day 21
[7] = 10 mg/kg/daily IP, PN-7 to PN-55
[8] = 10 mg/kg/day IP, PN-7 to PN-55, 10 mg/kg/day

N-hydroxy-N-(4-butyl-2-methylphenyl)-formamidine [HET0016]
phosphorylation of EGFR [1]: but not in normal renal epithelial cells; also recorded: lack of an effect
increased cell proliferation of Balb/C cells over-expressing Cyp4a12 [2]: completely abolished the increased cell proliferation
number of Cyp4a12-expressing Balb/C cells ([2]; day 3, without inhibitor 285,792±21,892): 49,700±5,085
kidney weight, body weight and KW/BW ratio vs vehicle (Balb/C mice; Balb/C mice): unchanged
Body weight (Balb/C mice; [5]): 10.5 ± 1.3 g
KW/BW (Balb/C mice; [5]): 1.3 ± 0.2 %
Kidney Weight (Balb/C mice; [5]): 0.13 ± 0.02 g
20-HETE levels in vivo (20-HETE): reduce 20-HETE levels in vivo
Body weight (BPK mice; [6]): 10.3 ± 1.0^¥ g
Kidney Weight (BPK mice; [6]): 0.97 ± 0.32 g
KW/BW (BPK mice; BPK (−/−), 10 mg/kg/day i.p., post-natal day 7-20, day 21, 10 mg/kg/day): 9.4% and 9.4 ± 3.3 %
kidney size (BPK mice; BPK mice, 10 mg/kg/day chronic daily, vehicle 1.08 g): 0.43 g
kidney size vs vehicle-treated BPK mice (FIG. 4) (BPK mice; BPK mice, 10 mg/kg/day i.p.): dramatically smaller
reduction in body weight vs vehicle (BPK mice; BPK mice, 10 mg/kg/day i.p.): not statistically significant
reduction of KW/BW ratio vs vehicle (BPK mice; BPK mice, 10 mg/kg/day i.p.): 53%
reduction of kidney size vs vehicle (BPK mice; BPK mice, 10 mg/kg/day i.p.): 56%
size and number of renal cysts (histology) (BPK mice; BPK mice, 10 mg/kg/day, day 21 kidneys, 10 mg/kg/day): marked reductions in the size and number of renal cysts; also recorded: dramatic reduction in the DBA-labeled collecting tubule cysts
collecting tubule cystic index (CI) (BPK mice; BPK mice, 10 mg/kg/day, untreated 4.7+/−0.6): 1.93+/−0.2
phosphorylation of EGFR [3]: reduced the phosphorylation of EGFR
number of cystic BPK cells [4]: 40,744±4,322
BW (PCK rats; [7]): 93
KW (% BW) (PCK rats; [7]): 0.97 % BW
LW (% BW) (PCK rats; [7]): 4.3 % BW
decrease in KW/BW ratio (PCK rats; 10 mg/kg/daily IP, vs vehicle): 23%
decrease in LW/BW ratio (PCK rats; 10 mg/kg/daily IP, vs vehicle): 25%
decrease in total body weight (PCK rats; 10 mg/kg/daily IP, vs vehicle): 14%
kidney morphology: cysts and tubular epithelial proliferation (PCK rats; [8]): dramatic reduction in size and number of cysts and tubular epithelial proliferation; also recorded: dramatic reduction in cyst size and tubular epithelial proliferation
liver morphology: biliary cysts and biliary epithelial proliferation (PCK rats; [8]): dramatic reduction in size and number of cysts and reduced biliary epithelial proliferation; also recorded: dramatic reduction in the size and number of biliary cysts and in the proliferation of biliary epithelial cells
